Assay results from publication PMC6757289, “Design and Characterization of SGK3-PROTAC1, an Isoform Specific SGK3 Kinase PROTAC Degrader” (ACS Chemical Biology, 2019).
Where two headings read alike, the source gives them in different places.

Columns and labels:
Experiment in all cases: kinase profiling panel
Assay type in all cases: biochemical
WNK1 = WNK1 (Homo sapiens, UniProt Q9H4A3); conditions: read-out: % Activity Remaining
From the text: (§1) Protein kinase profiling against a Dundee panel of 140 protein kinases was undertaken at the International Centre for Protein Kinase Profiling. The result for each kinase was presented as a mean kinase activity of the reaction taken in triplicate relative to a control sample treated with DMSO. Assay conditions and abbreviations are available at http://www.kinase-screen.mrc.ac.uk.

MARK4 = target: T1, MARK4 (Homo sapiens, UniProt Q96L34); conditions: read-out: % Activity Remaining
T1 sequence (Q96L34 1-752): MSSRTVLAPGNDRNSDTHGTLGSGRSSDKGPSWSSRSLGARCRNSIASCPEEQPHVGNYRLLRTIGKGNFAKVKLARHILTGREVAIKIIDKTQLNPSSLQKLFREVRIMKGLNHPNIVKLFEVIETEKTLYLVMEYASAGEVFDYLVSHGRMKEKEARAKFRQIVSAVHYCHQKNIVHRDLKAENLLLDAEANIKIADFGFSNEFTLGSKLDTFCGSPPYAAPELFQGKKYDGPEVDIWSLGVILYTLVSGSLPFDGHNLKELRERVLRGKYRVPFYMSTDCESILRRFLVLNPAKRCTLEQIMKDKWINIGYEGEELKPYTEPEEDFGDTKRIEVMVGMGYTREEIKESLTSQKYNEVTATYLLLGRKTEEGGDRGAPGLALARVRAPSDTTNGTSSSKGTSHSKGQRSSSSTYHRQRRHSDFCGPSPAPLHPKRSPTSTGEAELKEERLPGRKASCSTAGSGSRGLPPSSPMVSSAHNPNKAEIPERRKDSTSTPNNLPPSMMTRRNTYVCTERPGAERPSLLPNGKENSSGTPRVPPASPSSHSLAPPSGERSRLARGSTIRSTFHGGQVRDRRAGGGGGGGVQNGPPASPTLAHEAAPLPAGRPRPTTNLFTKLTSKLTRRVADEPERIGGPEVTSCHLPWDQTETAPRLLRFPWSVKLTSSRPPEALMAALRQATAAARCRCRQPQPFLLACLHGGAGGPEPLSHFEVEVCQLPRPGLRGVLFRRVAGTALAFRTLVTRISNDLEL
From the text: as §1

p38 gamma MAPK = target: T2, p38 gamma MAPK (Homo sapiens, UniProt P53778); conditions: read-out: % Activity Remaining
T2 sequence (P53778 1-367): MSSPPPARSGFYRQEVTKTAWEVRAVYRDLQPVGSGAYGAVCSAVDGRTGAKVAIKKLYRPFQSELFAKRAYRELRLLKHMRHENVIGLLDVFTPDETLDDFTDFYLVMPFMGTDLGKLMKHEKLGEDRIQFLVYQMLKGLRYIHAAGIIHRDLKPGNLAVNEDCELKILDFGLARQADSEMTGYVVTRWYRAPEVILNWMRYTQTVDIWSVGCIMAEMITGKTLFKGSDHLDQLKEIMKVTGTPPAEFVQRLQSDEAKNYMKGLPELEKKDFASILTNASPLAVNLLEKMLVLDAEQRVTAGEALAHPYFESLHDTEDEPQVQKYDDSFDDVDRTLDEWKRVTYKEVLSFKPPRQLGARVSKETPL
From the text: as §1

SIK2 = SIK2 (Homo sapiens, UniProt Q9H0K1); conditions: read-out: % Activity Remaining
From the text: as §1

PAK2 = PAK2 (Homo sapiens, UniProt Q13177); conditions: read-out: % Activity Remaining
From the text: as §1

AMPK (hum) = conditions: 1 µM
From the text: as §1

DYRK3 = target: T3, DYRK3 (Homo sapiens, UniProt O43781); conditions: read-out: % Activity Remaining
T3 sequence (O43781 1-588): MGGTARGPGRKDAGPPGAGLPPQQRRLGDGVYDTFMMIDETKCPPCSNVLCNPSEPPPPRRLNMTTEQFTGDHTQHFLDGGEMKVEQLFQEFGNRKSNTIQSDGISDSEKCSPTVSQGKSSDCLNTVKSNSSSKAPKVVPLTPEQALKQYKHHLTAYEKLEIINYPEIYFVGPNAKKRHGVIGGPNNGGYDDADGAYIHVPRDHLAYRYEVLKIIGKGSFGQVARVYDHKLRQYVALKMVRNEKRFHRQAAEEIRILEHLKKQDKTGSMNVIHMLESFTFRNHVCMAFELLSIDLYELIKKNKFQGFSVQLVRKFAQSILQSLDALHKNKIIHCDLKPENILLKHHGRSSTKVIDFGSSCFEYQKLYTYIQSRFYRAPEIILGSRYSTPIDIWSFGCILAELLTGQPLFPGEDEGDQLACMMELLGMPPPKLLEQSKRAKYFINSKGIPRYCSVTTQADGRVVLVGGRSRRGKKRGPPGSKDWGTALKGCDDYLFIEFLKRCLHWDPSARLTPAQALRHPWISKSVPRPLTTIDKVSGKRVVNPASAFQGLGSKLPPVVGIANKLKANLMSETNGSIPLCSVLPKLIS
From the text: as §1

MINK1 = MINK1 (Homo sapiens, UniProt Q8N4C8); conditions: read-out: % Activity Remaining
From the text: as §1

CLK2 = CLK2 (Homo sapiens, UniProt P49760); conditions: read-out: % Activity Remaining
From the text: as §1

Sequence of SIK2 (Q9H0K1 whole entry): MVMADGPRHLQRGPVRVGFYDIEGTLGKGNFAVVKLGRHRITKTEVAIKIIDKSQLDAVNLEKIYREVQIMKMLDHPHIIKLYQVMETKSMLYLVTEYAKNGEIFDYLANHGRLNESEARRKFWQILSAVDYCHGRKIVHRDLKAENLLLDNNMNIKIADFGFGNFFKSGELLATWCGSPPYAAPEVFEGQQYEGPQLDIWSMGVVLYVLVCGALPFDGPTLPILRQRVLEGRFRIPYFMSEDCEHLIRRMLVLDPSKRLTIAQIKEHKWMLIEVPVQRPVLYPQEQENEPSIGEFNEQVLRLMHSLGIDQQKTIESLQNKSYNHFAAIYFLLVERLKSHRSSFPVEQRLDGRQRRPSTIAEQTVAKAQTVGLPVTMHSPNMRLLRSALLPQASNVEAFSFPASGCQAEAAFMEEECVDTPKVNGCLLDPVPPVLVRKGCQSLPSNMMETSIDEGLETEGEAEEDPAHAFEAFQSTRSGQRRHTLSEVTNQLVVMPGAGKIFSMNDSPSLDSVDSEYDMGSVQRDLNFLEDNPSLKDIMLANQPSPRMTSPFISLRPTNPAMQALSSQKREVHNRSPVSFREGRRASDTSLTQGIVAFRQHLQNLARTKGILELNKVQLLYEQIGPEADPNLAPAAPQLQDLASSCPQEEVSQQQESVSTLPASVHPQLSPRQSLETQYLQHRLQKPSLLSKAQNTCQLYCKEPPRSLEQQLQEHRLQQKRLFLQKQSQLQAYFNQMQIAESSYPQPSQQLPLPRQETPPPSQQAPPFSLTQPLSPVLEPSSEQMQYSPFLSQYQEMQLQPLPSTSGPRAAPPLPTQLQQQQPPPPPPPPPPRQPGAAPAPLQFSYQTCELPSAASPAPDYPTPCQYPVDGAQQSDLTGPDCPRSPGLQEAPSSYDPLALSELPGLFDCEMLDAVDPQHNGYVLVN
Sequence of MINK1 (Q8N4C8 whole entry): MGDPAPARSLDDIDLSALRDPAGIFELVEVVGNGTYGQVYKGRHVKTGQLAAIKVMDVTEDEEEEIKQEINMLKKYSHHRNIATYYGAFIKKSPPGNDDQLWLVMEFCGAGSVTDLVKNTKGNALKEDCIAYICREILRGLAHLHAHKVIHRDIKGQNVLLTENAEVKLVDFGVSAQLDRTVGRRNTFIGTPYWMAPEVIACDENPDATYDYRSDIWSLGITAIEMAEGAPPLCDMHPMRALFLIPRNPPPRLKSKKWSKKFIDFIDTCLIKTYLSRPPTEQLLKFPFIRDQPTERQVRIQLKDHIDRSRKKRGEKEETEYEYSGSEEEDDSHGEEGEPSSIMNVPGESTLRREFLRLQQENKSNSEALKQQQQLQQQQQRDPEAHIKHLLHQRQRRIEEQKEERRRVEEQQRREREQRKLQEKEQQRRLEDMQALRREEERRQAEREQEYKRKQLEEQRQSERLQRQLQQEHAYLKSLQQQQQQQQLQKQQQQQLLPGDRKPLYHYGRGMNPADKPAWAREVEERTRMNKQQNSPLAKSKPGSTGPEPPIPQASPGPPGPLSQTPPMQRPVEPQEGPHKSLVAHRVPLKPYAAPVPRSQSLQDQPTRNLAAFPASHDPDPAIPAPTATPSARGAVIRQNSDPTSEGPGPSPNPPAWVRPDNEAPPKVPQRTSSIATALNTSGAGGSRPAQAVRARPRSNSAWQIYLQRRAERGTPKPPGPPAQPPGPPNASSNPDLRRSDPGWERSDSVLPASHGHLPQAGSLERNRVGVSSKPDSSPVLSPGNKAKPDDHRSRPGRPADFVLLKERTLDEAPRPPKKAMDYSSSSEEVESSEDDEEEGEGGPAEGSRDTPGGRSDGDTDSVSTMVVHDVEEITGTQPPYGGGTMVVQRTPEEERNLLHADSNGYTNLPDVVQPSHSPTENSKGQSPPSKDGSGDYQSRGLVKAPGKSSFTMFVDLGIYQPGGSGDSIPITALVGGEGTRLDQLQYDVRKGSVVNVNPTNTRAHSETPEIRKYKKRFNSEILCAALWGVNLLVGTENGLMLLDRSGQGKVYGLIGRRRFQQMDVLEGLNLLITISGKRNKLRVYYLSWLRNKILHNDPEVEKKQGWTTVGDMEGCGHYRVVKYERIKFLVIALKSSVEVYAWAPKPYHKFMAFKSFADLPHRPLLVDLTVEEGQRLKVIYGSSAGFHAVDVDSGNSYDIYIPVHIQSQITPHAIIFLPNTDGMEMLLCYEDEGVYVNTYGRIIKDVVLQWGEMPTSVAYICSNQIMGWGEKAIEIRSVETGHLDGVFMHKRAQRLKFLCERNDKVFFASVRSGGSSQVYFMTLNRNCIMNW
Sequence of PAK2 (Q13177 whole entry): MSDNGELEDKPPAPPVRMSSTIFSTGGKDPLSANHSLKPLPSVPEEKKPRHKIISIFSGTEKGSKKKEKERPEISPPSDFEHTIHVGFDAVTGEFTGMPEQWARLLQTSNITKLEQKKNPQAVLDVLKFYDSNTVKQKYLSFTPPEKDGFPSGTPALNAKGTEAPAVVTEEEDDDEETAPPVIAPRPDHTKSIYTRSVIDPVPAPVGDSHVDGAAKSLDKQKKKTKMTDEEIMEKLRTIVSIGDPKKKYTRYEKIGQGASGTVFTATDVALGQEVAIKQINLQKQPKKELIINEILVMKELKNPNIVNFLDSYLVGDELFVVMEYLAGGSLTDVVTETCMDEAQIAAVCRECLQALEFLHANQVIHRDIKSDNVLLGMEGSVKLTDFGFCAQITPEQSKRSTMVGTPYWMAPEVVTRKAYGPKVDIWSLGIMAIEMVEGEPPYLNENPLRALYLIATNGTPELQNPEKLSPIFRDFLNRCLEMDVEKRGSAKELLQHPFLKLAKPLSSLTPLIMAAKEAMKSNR
Sequence of CLK2 (P49760 whole entry): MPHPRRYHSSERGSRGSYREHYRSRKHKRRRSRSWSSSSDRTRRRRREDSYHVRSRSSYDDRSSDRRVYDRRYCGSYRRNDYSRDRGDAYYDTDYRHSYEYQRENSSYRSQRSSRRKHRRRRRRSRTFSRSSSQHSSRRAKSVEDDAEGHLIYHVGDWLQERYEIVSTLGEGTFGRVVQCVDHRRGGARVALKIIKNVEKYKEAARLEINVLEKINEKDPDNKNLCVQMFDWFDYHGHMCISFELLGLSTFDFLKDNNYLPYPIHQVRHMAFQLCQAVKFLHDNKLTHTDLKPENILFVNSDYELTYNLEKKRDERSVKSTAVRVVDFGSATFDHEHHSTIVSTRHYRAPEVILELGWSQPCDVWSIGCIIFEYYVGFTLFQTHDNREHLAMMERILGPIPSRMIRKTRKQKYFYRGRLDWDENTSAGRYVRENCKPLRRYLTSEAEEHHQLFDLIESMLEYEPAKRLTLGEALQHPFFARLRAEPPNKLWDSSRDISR

SMILES	remaining activity at 1 µM (WNK1)	remaining activity at 1 µM (MARK4)	remaining activity at 1 µM (p38 gamma MAPK)	remaining activity at 1 µM (SIK2)	remaining activity at 1 µM (PAK2)	% Activity Remaining (AMPK (hum))	remaining activity at 1 µM (DYRK3)	remaining activity at 1 µM (MINK1)	remaining activity at 1 µM (CLK2)	remaining activity at 1 µM (WNK1; 1 µM)	remaining activity at 1 µM (MARK4; 1 µM)	remaining activity at 1 µM (p38 gamma MAPK; 1 µM)	remaining activity at 1 µM (SIK2; 1 µM)	remaining activity at 1 µM (PAK2; 1 µM)	remaining activity at 1 µM (DYRK3; 1 µM)	remaining activity at 1 µM (MINK1; 1 µM)	remaining activity at 1 µM (CLK2; 1 µM)
COc1ccc(Cl)c(S(=O)(=O)Nc2ccc(-c3nc(OC[C@H]4CNCCO4)c4c(C)n[nH]c4n3)cc2)c1 [290-R, reference compound]	110%	98%	112%	91%	90%	15%	89%	101%	88%	–	–	–	–	–	–	–	–
Cc1ccc(F)c(S(=O)(=O)Nc2ccc(-c3nc(OC[C@H]4CNCCO4)c4cn[nH]c4n3)cc2)c1 [308-R, reference compound]	75%	73%	111%	55%	53%	78%	99%	83%	104%	–	–	–	–	–	–	–	–
Cc1ccc(F)c(S(=O)(=O)Nc2ccc(-c3nc(OC[C@H]4CN(CCCCCCOCCOCCOCC(=O)N[C@H](C(=O)N5C[C@H](O)C[C@H]5C(=O)NCc5ccc(-c6scnc6C)cc5)C(C)(C)C)CCO4)c4cn[nH]c4n3)cc2)c1 [SGK3-PROTAC1]	–	–	–	–	–	105%	–	–	–	94%	105%	107%	95%	116%	102%	115%	104%
Cc1ccc(F)c(S(=O)(=O)Nc2ccc(-c3nc(OC[C@H]4CN(CCCCCCOCCOCCOCC(=O)N[C@H](C(=O)N5C[C@@H](O)C[C@H]5C(=O)NCc5ccc(-c6scnc6C)cc5)C(C)(C)C)CCO4)c4cn[nH]c4n3)cc2)c1 [cisSGK3-PROTAC1]	–	–	–	–	–	108%	–	–	–	97%	100%	127%	94%	99%	104%	116%	85%
